Reference: patent publication US20230357440A1, “BISPECIFIC ANTIBODY AGAINST CD3 AND CD20 IN COMBINATION THERAPY FOR TREATING FOLLICULAR LYMPHOMA” (GENMAB A/S, priority 2020, published 2023)

How the values were obtained:
[1] = tested on: Human Burkitt lymphoma Raji cells; assay type: cell-based; conditions: no epcoritamab, bendamustine 0-20 μM, 48 hours
Experimental: (§1) Bendamustine, an alkylating agent that causes intra- and inter-strand crosslinks between DNA bases, is approved for treatment of CLL and indolent B-NHL. This experiment was performed to determine whether bendamustine impacts the anti-tumor activity of epcoritamab by using in vitro T-cell activation and cytotoxicity assays.
(§2) Briefly, Human Burkitt lymphoma (Raji [ATCC, cat. no. CCL-86]) and DLBCL (SU-DHL-4 [Deutsche Sammlung von Mikroorganismen und Zellkulturen—DSMZ, cat. no. ACC-495]) cell lines were used as target cells. Cells were cultured in culture medium (RPMI 1640 with HEPES and L-Glutamine supplemented with 10% heat-inactivated donor bovine serum with iron, and 1% [v/v] penicillin/streptomycin) to which 2 mM L-glutamine, and 1 mM sodium pyruvate were added, at 37° C., 5% CO2. […] Isolated cells were washed twice in phosphate buffered saline (PBS) and counted using acridine orange/propidium iodide (AO/PI) viability staining solution (Nexcelom Bioscience) on a Cellometer® Auto 2000 Cell Viability Counter. […] B-cell viability and T-cell activation were measured by flow cytometry (count of CD22-positive cells; expression of the activation markers CD69, CD25, and CD107 [LAMP-1] on CD4+ and CD8+ T cells). The percentage cytotoxicity was calculated as follows: […]

DLBCL SU-DHL-4 cells = assay type: cell-based, human; conditions: no epcoritamab, bendamustine 0-20 μM, 48 hours
Experimental: as §1, §2

[2] = tested on: double-refractory follicular lymphoma; conditions: Salles et al., Haematologica 2017; cited from earlier work
[3] = tested on: T cells isolated from human healthy donor buffy coats; experiment: in vitro T-cell activation assay (flow cytometry; CD69, CD25, CD107/LAMP-1); assay type: cell-based
Experimental: as §1
Briefly, Human Burkitt lymphoma (Raji [ATCC, cat. no. CCL-86]) and DLBCL (SU-DHL-4 [Deutsche Sammlung von Mikroorganismen und Zellkulturen—DSMZ, cat. no. ACC-495]) cell lines were used as target cells. Cells were cultured in culture medium (RPMI 1640 with HEPES and L-Glutamine supplemented with 10% heat-inactivated donor bovine serum with iron, and 1% [v/v] penicillin/streptomycin) to which 2 mM L-glutamine, and 1 mM sodium pyruvate were added, at 37° C., 5% CO2. T cells, which were isolated from human healthy donor buffy coats by negative selection using the RosetteSep™ Human T Cell Enrichment Cocktail (Stemcell Technologies) followed by density centrifugation over a Ficoll gradient, both according to the manufacturer's instructions, were used as effector cells. Isolated cells were washed twice in phosphate buffered saline (PBS) and counted using acridine orange/propidium iodide (AO/PI) viability staining solution (Nexcelom Bioscience) on a Cellometer® Auto 2000 Cell Viability Counter. T cells (100,000 cells/well) were incubated with Raji or SU-DHL-4 cells (50,000 cells/well) in culture medium in the presence of epcoritamab (0.033 pg/mL-333 ng/mL) and bendamustine (0-20 μM) at 37° C., 5% CO2 for 48 hours. B-cell viability and T-cell activation were measured by flow cytometry (count of CD22-positive cells; expression of the activation markers CD69, CD25, and CD107 [LAMP-1] on CD4+ and CD8+ T cells). The percentage cytotoxicity was calculated as follows: […]

[4] = tested on: relapsed/refractory (R/R) B-NHL; experiment: epcoritamab monotherapy clinical trial in R/R B-NHL (NCT03625037); assay type: in vivo, human; conditions: R/R B-NHL patients, preliminary data
Description: Epcoritamab as monotherapy is currently in a clinical trial for the treatment of relapsed/refractory (R/R) B-NHL (ClinicalTrials.gov Identifier: NCT03625037).

[5] = tested on: previously untreated follicular lymphoma; experiment: Phase 1b study of epcoritamab in combination with rituximab and bendamustine (BR); assay type: in vivo
Experimental: The Part 1 dose escalation assesses the initial safety, tolerability, and clinical activity of epcoritamab in combination with BR. Epcoritamab is initially be administered in combination with BR in a 3-subject cohort. DLTs are evaluated during the first 28 days. Depending on the number of DLTs observed in the initial 3 subjects, administration of epcoritamab (full dose: 48 mg or 24 mg) in combination with BR is performed in an additional 3 patients as shown in FIG. 3.
In Part 2, epcoritamab is administered (with the dosing regimen determined in the dose escalation part) in combination with BR. The expansion will include 20 subjects in order to evaluate the preliminary clinical activity of the combination, in addition to safety, tolerability, PK, pharmacodynamic, and immunogenicity data.
A step-up dosing method is used for epcoritamab to mitigate the potential for CRS: priming dose (0.16 mg) on cycle 1 day 1, followed by intermediate dose (0.8 mg) on cycle 1 day 8, full dose (24 mg or 48 mg) on cycle 1 day 15 and day 22, and full dose in subsequent cycles. […] Bendamustine (90 mg/m^2) is administered intravenously daily on days 1 and 2 of cycles 1-6. If bendamustine is started later than day 1 of a cycle, then planned day 1 of the next cycle is calculated from the day when bendamustine was actually initiated in order to maintain the regular cycle interval of 28 days. […]
Safety is assessed by measuring adverse events, laboratory test results, ECGs, vital sign measurements, physical examination findings, and ECOG performance status. Also assessed are immune effector cell-associated neurotoxicity syndrome (e.g., as described by Lee et al., Biol BloodMarrow Transplant 2019; 25:625-638), constitutional symptoms (B symptoms), tumor flare reaction, and survival.

[6] = tested on: CD20-expressing Raji-luc tumor cells; conditions: even in the presence of an excess of rituximab variant with inert Fc domain (IgG1-RTX-FEAR); cited from earlier work
[7] = tested on: primary DLBCL and follicular lymphoma patient biopsies; conditions: cited from earlier work

For `Cn1c(CCCC(=O)O)nc2cc(N(CCCl)CCCl)ccc21` [bendamustine, 4-[5-[Bis(2-chloroethyl)amino]-1-methyl-iH-benzo[d]imidazole-2-yl]butanoic acid], the “number of viable B cells, bendamustine alone” value [1] was “decreased the number of viable B cells in a dose dependent manner” and the “number of viable B cells, bendamustine alone” value (DLBCL SU-DHL-4 cells) was “decreased the number of viable B cells in a dose dependent manner”.
In the case of `CC[C@H](Nc1ncnc2[nH]cnc12)c1nc2cccc(F)c2c(=O)n1-c1ccccc1` [idelalisib], the “1-year PFS” value [2] is listed as 43% and the toxicities [2] is listed as “several toxicities leading to treatment discontinuation”.
In the case of “epcoritamab: IgG1 bispecific CD3×CD20 antibody, heavy/light chains SEQ ID NOs: 24, 25 and 26, 27; CAS 2134641-34-0”, the “epcoritamab-induced T-cell activation in the presence of bendamustine” value ([3]; bendamustine 0-20 μM, Raji or SU-DHL-4 cells, 48 hours) is reported as “not affected by the presence of bendamustine at all concentrations tested”, the “upregulation of T-cell activation markers on CD4+ T cells in the presence of bendamustine” value ([3]; bendamustine 0-20 μM, data not shown) is reported as “not affected by bendamustine” and the “activation of CD8+ T cells (upregulation of CD69, CD25 and LAMP-1)” value ([3]; in presence of Raji or SU-DHL-4 cells, epcoritamab 0.033 pg/mL-333 ng/mL, 48 hours) is reported as “concentration-dependent activation of CD8+ T cells”. For the same compound, the dose-limiting toxicities [4] was “no dose-limiting toxicities reported”, the tolerated dose ([4]; up to at least 48 mg, including 60 mg) was “at least 48 mg” and the “responders in expansion phase” value ([5]; 48 mg expansion, as of Sep. 8, 2021, preliminary, non-validated data) was 1. The “responders in dose escalation phase” value ([5]; as of Sep. 8, 2021, 17 patients dosed in total, preliminary, non-validated data) was 5, the “grade of all CRS events” value ([5]; preliminary data) was “Grade ½” and the “most common related AEs” value ([5]; preliminary data) was “CRS and Nausea”. For the same compound, the “tumor growth in the xenograft model” value [6] was “effectively reduce tumor growth”, the tumor cell kill ([7]; biopsy taken 2 weeks after administering the anti-CD20 antibody) was “up to 40%” and the “T-cell-mediated cytotoxicity in patient biopsies” value [7] was “induced T-cell-mediated cytotoxicity”.
